These results are taken from patent publication US9084766B2, “Compounds and compositions for targeting cancer stem cells” (Boston Biomedical, Inc., priority 2010, dated 2015).

In data set [1] the test system is FaDu human head and neck cancer. The experiment in a line: Antitumor activity in subcutaneous FaDu xenograft mice. The data set is classed as in vivo. As for the experimental part:
In the studies shown in FIG. 8, immunosuppressed mice with established subcutaneous FaDu human head and neck cancer were given indicated amount of hand grounded Compound 1 with Crystal Form 1, or vehicle control orally (po). Compound 1 was formulated in […]™. All regimens were administered daily (qd). Tumor sizes were evaluated periodically during treatment.
In the study shown in FIG. 9, immunosuppressed mice with established subcutaneous FaDu human head and neck cancer were given 100 mg/kg of micronized Compound 1 produced with the synthetic process described in FIGS. 5A and 5B (first crop), or vehicle control orally (po). Compound 1 was formulated in […]™. All regimens were administered daily (qd). Tumor sizes were evaluated periodically during treatment. Form 2 has been successfully manufactured by a current good manufacturing practice (cGMP) process and received approval from the FDA and Health Canada to be used in clinical trials.
Form 3 can only be generated from Form 1 using a specially designed slurry process described herein. […] In the study shown in FIG. 10, immunosuppressed mice with established subcutaneous FaDu human head and neck cancer were given 200 mg/kg of Compound 1 with hand grounded Crystal Form 1 or Form 3, or vehicle control orally (po). Compound 1 was formulated in gelucire. All regimens were administered daily (qd). Tumor sizes were evaluated periodically during treatment. This polymorph has been successfully manufactured by a cGMP process and received approval from FDA and Health Canada to be used in clinical trials.
The anti-tumor activity of particles of Compound 1 with different particle size ranges is illustrated in FIG. 15, and the pharmacokinetic data for particles of Compound 1 with different particle size ranges is illustrated in FIGS. 16-18. In the study shown in FIG. 15, immunosuppressed mice with established subcutaneous FaDu human head and neck cancer were given indicated amount of Compound 1 with indicated particle size, or vehicle control orally (po). All regimens were administered daily (qd). Tumor size was evaluated periodically.
In an experiment, a formulation of Compound 1 particles sieved to 160 micron was tested in the model of immunosuppressed mice with established subcutaneous xenograft FaDu human head and neck cancer. The pharmaceutical composition was formulated as 80 mg/ml in 9% Gelucire, 20% Vitamin E TPGS (Table 3). […] All regimens were administered daily (qd).
In an experiment, Compound 1 crystals were milled to a median particle size of about 20 micron. […] All regimens were administered daily (qd).
FaDu human head and neck cancer cells were inoculated subcutaneously into female athymic nude mice (6×10^6 cells/mouse) and allowed to form palpable tumors. When the tumors reached approximately 100 mm^3, the animals were treated orally (po) with Compound 1 at 100 mg/kg or vehicle control daily. Compound 1 was formulated at 10 mg/ml in 20% gelucire. Tumors and bodyweights were measured throughout treatment (FIG. 15).
Daily examinations into the health status of each animal were also conducted. Body weights were checked every three days. Food and water was supplied daily according to the animal husbandry procedures of the facility. Treatment producing>20% lethality and or >20% net body weight loss were considered toxic. Results are expressed as mean tumor volume (mm^3)±SE. P Values<0.05 are considered to be statistically relevant.
Male or female athymic nude mice 4-5 weeks (Charles River Laboratories, Wilmington, Mass.), were acclimated to the animal housing facility for at least 1 week before study initiation. […]

For data set [2], the system named is cancer cells or cancer stem cells. The experiment in a line: In vitro IC50 on cancer cells or cancer stem cells. It is filed as cell-based.
Data set [3] can be described thus: Pharmacokinetics in mice of particle size formulations. The conditions noted are these: particle size 125-150 micron versus 2 and 20 micron, 100 mg/kg oral, 20% Gelucire 44/14 and 1% Tween 80. It is filed as in vivo. On the procedure:
In an experiment, micronized Compound 1 prepared in step 6 of Example 2 with a mean particle size of 2 micron, 20 microns, 150 microns were formulated as suspensions in 20% Gelucire 44/14 and 1% Tween 80 and administered orally to mice at 100 mg/kg. Each time point represents the average of 3 mice (FIG. 16).

Data set [4] relates to cancer cells and normal cells. The experiment in a line: Exposure time/concentration selectivity, cancer cells versus normal cells. It is filed as cell-based. As for the experimental part:
(§1) The studies described herein discovered counter-intuitively that cancer cells and cancer stem cells requires much shorter exposure than normal cells to be killed by Compound 1. Normal cells can tolerate up to 24 hours of exposure to Compound 1. Furthermore, the studies here discovered that normal cells can recover after a short period of no-drug exposure, while cancer cells cannot recover once they are exposed to a certain concentration of the Compound 1 for at least 2 hours. Based on these studies, a special pharmacokinetic exposure [termed selective pharmacokinetic profile (SPP), or preferred pharmacokinetic profile (PPP), which is used interchangeably in this publication] was designed for Compound 1 using the data shown below in Table 14 for achieving selective antitumor activity in patients (FIG. 24).
Preferably, cancer cells must be exposed to a Compound of the Invention such as Compound 1, particles, polymorphs and/or purified forms thereof for 4 hours at concentration greater than 0.2 μM in order to induce cancer cell death. […] A reduced particle size of Compound 1 achieved this preferred pharmacokinetic pattern and selective activity.
The selective activity of Compound 1 in killing cancer cells and sparing normal cells is represented by the data in Table 14 and illustrated in FIG. 24.

In another data set the test system is PMBCs. Put plainly: IC50 versus treatment time, PMBCs. It is filed as cell-based. The conditions noted are these: normal cells PMBCs. As for the experimental part: as §1
The next data set relates to HT29. Put plainly: IC50 versus treatment time, HT29. Conditions: HT29 cancer cells. It is filed as cell-based. On the procedure:
as §1

In another data set the test system is CD34+ BM Myeloid. The experiment in a line: IC50 versus treatment time, CD34+ BM Myeloid. It is filed as cell-based. The conditions noted are these: normal cells CD34+ BM Myeloid, treatment time 12-24 h. As for the experimental part: as §1

“Also recorded” adds a separate entry of the source. Read-outs that look alike come from different tables or passages of the source.

The term IC50 denotes the concentration needed to halve the response being measured. As to `CC(=O)c1cc2c(o1)C(=O)c1ccccc1C2=O` [Compound 1, 2-acetyl-4H,9H-naphtho[2,3-b]furan-4,9-dione], the anti-tumor activity entry in data set [1] (composition of particle size less than 5 micron, mice) was “potent anti-tumor activity”; in data set [1] (nanoparticles, D50 about 100 nanometers (110.4 nanometers)), “reduction of anti-tumor activity”. Moreover, the efficacy entry in data set [1] (composition with particle size greater than 20 micron, mice) is “no or weak efficacy”; in data set [1] (median particle size about 2 micron, 100 mg/kg po daily, 20% gelucire, 100 mg/kg), “surprisingly enhanced anti-tumor activity; also recorded: good efficacy; also recorded: strong efficacy; also recorded: potent efficacy”; in data set [1] (median particle size about 2 micron, 100 mg/kg po daily, 20% gelucire, listed as naphthofuran compound, 100 mg/kg), “dramatically enhanced efficacy”; in data set [1] (median particle size about 20 micron, 200 mg/kg daily oral, 200 mg/kg), “weak or moderate efficacy”; in data set [1] (median particle size about 20 micron, 200 mg/kg daily oral, listed as naphthofuran compound, 200 mg/kg) it was “relative weak”; in data set [1] (particles sieved to 160 micron (150 micron), 400 mg/kg daily oral, 400 mg/kg), “no efficacy”. Further, in data set [1] (particles sieved to 160 micron (150 micron), 400 mg/kg daily oral, listed as naphthofuran compound, 400 mg/kg), the efficacy entry is listed as “no efficacy”. The IC50 in data set [2] (preclinical studies, read-out: IC50 to kill cancer cells or cancer stem cells) was 100 to 200 nM; in data set [2] (read-out: IC50 of the compound in vitro), 30 to 500 nM; in the data set with PMBCs (treatment time 12-24 h), 14000 nM; with PMBCs (treatment time 72 h), 3000 nM; in the data set with HT29 (treatment time 12-24 h), less than 500 nM; in the data set with HT29 (Homo sapiens, HT-29, treatment time 4-12 h), less than 500 nM. The molecule further gave an IC50 in the data set on CD34+ BM Myeloid of more than 30000 nM. Moreover, the plasma exposure result in data set [3] is reported as “lower level of exposure”. Further, the selectivity entry in data set [4] (concentration greater than from about 0.5 to about 3 μM for less than 24 hours) is “selective activity in killing cancer cells and sparing normal cells”; in data set [4] (concentrations of about or above 0.2 and 30 μM for from about 4 hours up to about 24 hours), “selective killing of cancer cells and sparing of normal cells”; in data set [4] (continuous exposure for greater than 24 hours), “loss of selectivity”. In data set [4] (concentrations of less than 0.5 μM, regardless of exposure time), the “killing of cancer cells” value was “no killing of cancer cells”. Moreover, in data set [4] (normal cells), the “exposure time tolerated by normal cells” value was “up to 24 hours”.
